Structures are written as SMILES.

We go through 1 molecule from patent US6458398B1, “Cold water disinfection of foods” (Eco Pure Food Safety Systems, Inc., priority 1999, dated 2002).

For experiment [1] the following is noted: relative to chlorine; cited from earlier work.
Experiment [2] relates to Poliovirus type I. The following applies: cited from earlier work.
Experiment [3] has as its system bacterial spores (Bacillus subtilis v. globigii). The following applies: within 1.5-2 minutes, water purged with 3% ozone by weight; cited from earlier work.
Experiment [4] deals with Naegleria gruberi. The following applies: in 1.1 minutes, ozone-demand free phosphate buffer solution; cited from earlier work.
For experiment [5], the system named is human immunodeficiency virus ("HIV"). The following applies: non-toxic concentration of 4 μg ozone per ml of serum; cited from earlier work.
The subject of experiment [6] is Escherichia coli (ATCC number 25922). Put plainly: cold water washing of raw cabbage inoculated with E. coli suspension. The following applies: 25 g raw cabbage, 10 minutes, 21° C., pH 7.5 (ozone only) or 8.5 (with FIT 0.6 g/L).
Experiment [7] has as its system Candida tropicalis. The following applies: in 0.30 minutes, ozone-demand free water; cited from earlier work.
Experiment [8] deals with Escherichia coli. The following applies: in 19 minutes, raw waste water; cited from earlier work.

For the molecule `O=[O+][O-]` [ozone], the “rate of disinfection, times faster than chlorine” value in experiment [1] is recorded as “more than 3,000 times”. Besides, the “ozone concentration giving a 99% reduction” value was 0.2 mg/L in experiment [2], 1.2 mg/L in experiment [4], 0.02 mg/L in experiment [7] and 2.2 mg/L in experiment [8]. The “log reduction of bacterial spores” value in experiment [3] is recorded as “four”. Also, the “log reduction in the infectious titer” value in experiment [5] is “six”. Moreover, in experiment [6], the “decrease in E. coli relative to the control” value is 93%.
